# Assay results as given in patent publication US8101605B2, “SHIP1 modulators and methods related thereto” (Aquinox Pharmaceuticals Inc., priority 2009, dated 2012).
# Key:
# [1] = test system: Akt phosphorylation in Jurkat (PTEN−/SHIP1−) cells; test: Akt phosphorylation in IGF-1 stimulated Jurkat lymphocytes (western blot); assay type: cell-based; set-up: key: +: inhibits Akt phosphorylation at 10 μM; −: no effect on Akt phosphorylation at 10 μM; conditions: 10 μM; IGF-1 stimulation
# Experimental: (§1) Jurkat (PTEN−/SHIP1−) or Molt-4 (PTEN−/SHIP1+) cells were starved in serum free RPMI for overnight. In a 15 mL conical tube, 2-3 million serum starved cells (1 million cells per mL) were treated with various concentrations of test compound (0.1, 1, or 10 μM final in 0.1% DMSO) for 30 min at 37° C. followed by stimulation with 100 ng/mL of IGF-1 for 1 hour at 37° C. After stimulation, cells were washed once with ice-cold DPBS and lysed with Lysis Buffer (20 mM Tris-HCl, pH 7.5, 140 mM NaCl, 1% NP-40, Complete Mini Protease Inhibitor Cocktail, 10 mM NaF, 1 mM Na3VO4, 1 mM β-glycerolphosphate) on ice for 30 min with vortexing every 10 min. Samples were then centrifuged at 13,000 rpm for 20 min, and supernatants were collected as total cell lysate samples. Protein concentration was determined using bicinchonic acid assay, and about 15 μg of total protein from each sample was loaded and separated on a 4-12% Tris-Glycine gel. After SDS-PAGE, proteins were transferred from the gel to a nitrocellulose membrane. The membrane was blocked in 5% BSA in PBS containing 0.1% Tween-20 (PBS-T) for 1 hour at room temperature before probing with primary antibodies for overnight at 4° C. The following antibodies were used: mouse anti-SHIP1 (1:500 dilution; Santa Cruz, Calif., USA), rabbit anti-phospho-Akt(Ser473) (1:1000 dilution; Cell Signaling Technologies, MA, USA), rabbit anti-Akt (1:1000; Cell Signaling Technologies, MA, USA), and rabbit anti-actin (1:2000; Cell Signaling Technologies, MA, USA). The membrane was then incubated with goat anti-rabbit or anti-mouse secondary antibodies (1:3000) for 1 hour at room temperature. Target proteins on the membrane were detected with ECL solution and exposed on a film.
# (§2) Scoring in Table 3 is expressed as follows: + (inhibits Akt phosphorylation at 10 μM); − (no effect on Akt phosphorylation at 10 μM).
# His-hSHIP1 enzyme = molecular target: T1, His-hSHIP1 enzyme (Homo sapiens, UniProt Q92835); test: His-hSHIP1 phosphatase activity assay (IP4 substrate, Biomol Green); assay type: biochemical; conditions: percentage increase relative to background; concentrations ≦300 μM
# T1 sequence (Q92835 1-1189): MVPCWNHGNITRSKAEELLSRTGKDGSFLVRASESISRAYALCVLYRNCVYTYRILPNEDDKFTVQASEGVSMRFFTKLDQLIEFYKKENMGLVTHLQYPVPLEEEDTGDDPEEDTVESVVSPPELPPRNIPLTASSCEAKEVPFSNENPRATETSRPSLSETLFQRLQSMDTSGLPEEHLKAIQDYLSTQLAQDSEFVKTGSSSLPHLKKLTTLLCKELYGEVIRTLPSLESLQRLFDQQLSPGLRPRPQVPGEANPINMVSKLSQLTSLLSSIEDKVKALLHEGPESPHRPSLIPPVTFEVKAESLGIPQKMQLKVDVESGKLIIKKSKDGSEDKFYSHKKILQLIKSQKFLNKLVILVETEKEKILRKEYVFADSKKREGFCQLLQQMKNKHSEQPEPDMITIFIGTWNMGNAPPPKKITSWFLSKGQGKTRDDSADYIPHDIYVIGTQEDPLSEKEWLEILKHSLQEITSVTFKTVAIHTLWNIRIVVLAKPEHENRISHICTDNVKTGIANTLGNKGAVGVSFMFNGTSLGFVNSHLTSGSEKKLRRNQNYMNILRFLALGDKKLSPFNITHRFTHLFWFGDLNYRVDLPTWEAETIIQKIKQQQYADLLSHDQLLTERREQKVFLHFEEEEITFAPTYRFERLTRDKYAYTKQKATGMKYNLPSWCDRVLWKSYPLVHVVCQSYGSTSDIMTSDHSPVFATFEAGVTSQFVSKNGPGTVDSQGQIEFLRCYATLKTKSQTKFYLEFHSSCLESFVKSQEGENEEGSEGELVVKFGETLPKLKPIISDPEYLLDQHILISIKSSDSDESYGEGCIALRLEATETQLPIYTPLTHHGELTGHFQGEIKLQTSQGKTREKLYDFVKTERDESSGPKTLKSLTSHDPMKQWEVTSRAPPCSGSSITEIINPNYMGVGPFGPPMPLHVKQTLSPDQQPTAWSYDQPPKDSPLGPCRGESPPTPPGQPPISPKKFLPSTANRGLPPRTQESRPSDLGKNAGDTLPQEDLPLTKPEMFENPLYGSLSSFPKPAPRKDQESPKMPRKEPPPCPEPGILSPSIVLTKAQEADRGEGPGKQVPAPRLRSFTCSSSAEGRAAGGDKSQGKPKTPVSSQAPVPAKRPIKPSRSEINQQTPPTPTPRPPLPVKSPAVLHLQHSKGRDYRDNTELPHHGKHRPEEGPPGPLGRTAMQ
# Outline: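 His-hSHIP1 (15–20 ng) was incubated with IP4 (50 μM final) and compound (0–300 μM final, from 10% ethanol solutions) in 20 mM Tris-HCl, 10 mM MgCl2 pH 7.5, 0.02% Tween 20 for 15 min at 37 °C. Released phosphate was read with Biomol Green at 650 nm. Activation is % increase over background, scored + (<50%), ++ (≥50% but <65%), +++ (≥65%).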
# [2] = test system: Akt phosphorylation in Molt-4 (PTEN−/SHIP1+) cells; test: Akt phosphorylation in IGF-1 stimulated Molt-4 lymphocytes (western blot); assay type: cell-based; set-up: key: +: inhibits Akt phosphorylation at 10 μM; −: no effect on Akt phosphorylation at 10 μM; conditions: 10 μM; IGF-1 stimulation
# Experimental: as §1, §2
SMILES,"Akt phosphorylation, Jurkat (SHIP1−) [1]",Scoring: percent (%) activation of His-hSHIP1 enzyme (His-hSHIP1 enzyme),"Akt phosphorylation, Molt-4 (SHIP1+) [2]"
"Cc1cc(O)cc2c1[C@]1(C)CC[C@H]3C(C)(C)CCC[C@]3(C)[C@H]1CO2 [Compound No. 6, (1R,10R,11S,16S)-1,3,11,15,15-pentamethyl-8-oxatetracyclo[8.8.0.0^2,7.0^11,16]octadeca-2,4,6-trien-5-ol]",−,+ (<50%),+
"CC1(C)CCC[C@]2(C)[C@H]3CS(=O)(=O)c4cc(O)cc(O)c4[C@]3(C)CC[C@@H]12 [Compound No. 28, (1R,10R,11S,16S)-3,5-dihydroxy-1,11,15,15-tetramethyl-8-thiatetracyclo[8.8.0.0^2,7.0^11,16]octadeca-2,4,6-triene-8,8-dione]",−,+++ (≧65%),+
